Patent US8937167B2 (Washington University, priority 2009, dated 2015)

Each compound was assayed against FimH (Escherichia coli, UniProt Q1R2J4). Conditions: not given.
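Note: hemagglutination inhibition of guinea pig erythrocytes agglutinated by type 1 piliated uropathogenic E. coli via FimH mannose binding, quantified through serial dilutions of compound.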

| Compound | HAI Titer EC>90 [mM] |
| --- | --- |
| CNC(=O)c1cncc(-c2ccc(OC3OC(CO)C(O)C(O)C3O)cc2)c1 (centres unmarked) | 0.0005 |
| CC(=O)Nc1ccccc1OC1OC(CO)C(O)C(O)C1O (centres unmarked) [Compound 1ZFH95, N-[2-[3,4,5-trihydroxy-6-(hydroxymethyl)tetrahydropyran-2-yl]oxyphenyl]acetamide] | 0.125 |
| COC(=O)c1cccc(OC2OC(CO)C(O)C(O)C2O)c1 (centres unmarked) [Compound 1ZFH101, methyl 3-[3,4,5-trihydroxy-6-(hydroxymethyl)tetrahydropyran-2-yl]oxybenzoate] | 0.006 |
| O=C(NCCCCOC1OC(CO)C(O)C(O)C1O)c1ccc(C(=O)O)c(-c2c3ccc(=O)cc-3oc3cc(O)ccc23)c1 (centres unmarked) [Compound 1ZFH134A, 2-(3-hydroxy-6-oxo-xanthen-9-yl)-4-[4-[3,4,5-trihydroxy-6-(hydroxymethyl)tetrahydropyran-2-yl]oxybutylcarbamoyl]benzoic acid] | 0.125 |
| O=C(NCCCCOC1OC(CO)C(O)C(O)C1O)c1ccc(-c2c3ccc(=O)cc-3oc3cc(O)ccc23)c(C(=O)O)c1 (centres unmarked) [Compound 1ZFH134B, 2-(3-hydroxy-6-oxo-xanthen-9-yl)-5-[4-[3,4,5-trihydroxy-6-(hydroxymethyl)tetrahydropyran-2-yl]oxybutylcarbamoyl]benzoic acid] | 0.125 |
| O=[N+]([O-])c1ccc(COC2OC(CO)C(O)C(O)C2O)cc1 (centres unmarked) [Compound 1ZFH152, 2-(hydroxymethyl)-6-[(4-nitrophenyl)methoxy]tetrahydropyran-3,4,5-triol] | 0.06 |
| OCC1OC(Oc2ccc3ccccc3c2)C(O)C(O)C1O (centres unmarked) [Compound 1ZFH185, 2-(hydroxymethyl)-6-(2-naphthyloxy)tetrahydropyran-3,4,5-triol] | 0.006 |
| COC(=O)Cc1cc(OC2OC(CO)C(O)C(O)C2O)ccc1O (centres unmarked) [Compound 1ZFH187, methyl 2-[2-hydroxy-5-[3,4,5-trihydroxy-6-(hydroxymethyl)tetrahydropyran-2-yl]oxy-phenyl]acetate] | 0.015 |
| O=C(c1ccccc1)c1cccc(OC2OC(CO)C(O)C(O)C2O)c1 (centres unmarked) [Compound 1ZFH263, phenyl-[3-[3,4,5-trihydroxy-6-(hydroxymethyl)tetrahydropyran-2-yl]oxyphenyl]methanone] | 0.008 |
| COC(=O)c1ccc(-c2cccc(OC3OC(CO)C(O)C(O)C3O)c2)cc1 (centres unmarked) [Compound 1ZFH265, methyl 4-[3-[3,4,5-trihydroxy-6-(hydroxymethyl)tetrahydropyran-2-yl]oxyphenyl]benzoate] | 0.006 |
| OCC1OC(Oc2cc(C(F)(F)F)cc(C(F)(F)F)c2)C(O)C(O)C1O (centres unmarked) [Compound 1ZFH274, 2-[3,5-bis(trifluoromethyl)phenoxy]-6-(hydroxymethyl)tetrahydropyran-3,4,5-triol] | 0.032 |
| OCC1OC(Oc2cc(F)c(F)c(F)c2)C(O)C(O)C1O (centres unmarked) [Compound 1ZFH282, 2-(hydroxymethyl)-6-(3,4,5-trifluorophenoxy)tetrahydropyran-3,4,5-triol] | 0.125 |
| OCC1OC(Oc2ccc(Br)cc2)C(O)C(O)C1O (centres unmarked) [Compound 2ZFH46, 2-(4-bromophenoxy)-6-(hydroxymethyl)tetrahydropyran-3,4,5-triol] | 0.032 |
| O=[N+]([O-])c1cccc(OC2OC(CO)C(O)C(O)C2O)c1 (centres unmarked) [Compound 2ZFH100, 2-(hydroxymethyl)-6-(3-nitrophenoxy)tetrahydropyran-3,4,5-triol] | 0.016 |
| N#Cc1ccccc1OC1OC(CO)C(O)C(O)C1O (centres unmarked) [Compound 2ZFH108, 2-[3,4,5-trihydroxy-6-(hydroxymethyl)tetrahydropyran-2-yl]oxybenzonitrile] | 0.006 |
| Cc1ccc(OC2OC(CO)C(O)C(O)C2O)cc1 (centres unmarked) [Compound 2ZFH175, 2-(hydroxymethyl)-6-(4-methylphenoxy)tetrahydropyran-3,4,5-triol] | 0.008 |
| COc1ccc(OC2OC(CO)C(O)C(O)C2O)cc1 (centres unmarked) [Compound 2ZFH176, 2-(hydroxymethyl)-6-(4-methoxyphenoxy)tetrahydropyran-3,4,5-triol] | 0.008 |
| OCC1OC(Oc2ccccc2Cl)C(O)C(O)C1O (centres unmarked) [Compound 2ZFH180, 2-(2-chlorophenoxy)-6-(hydroxymethyl)tetrahydropyran-3,4,5-triol] | 0.004 |
| OCC1OC(Oc2cccc(Cl)c2)C(O)C(O)C1O (centres unmarked) [Compound 2ZFH181, 2-(3-chlorophenoxy)-6-(hydroxymethyl)tetrahydropyran-3,4,5-triol] | 0.008 |

| Compound | HAI Titer EC>90 [mM] |
| --- | --- |
| O=C(NCCCCCCCCNC(=O)c1cccc(-c2ccc(OC3OC(CO)C(O)C(O)C3O)cc2)c1)c1cccc(-c2ccc(OC3OC(CO)C(O)C(O)C3O)cc2)c1 (centres unmarked) [Compound 2ZFH234, 3-[4-[3,4,5-trihydroxy-6-(hydroxymethyl)tetrahydropyran-2-yl]oxyphenyl]-N-[8-[[3-[4-[3,4,5-trihydroxy-6-(hydroxymethyl)tetrahydropyran-2-yl]oxyphenyl]benzoyl]amino]octyl]benzamide] | 0.002 |
| COC(=O)c1cccc(-c2ccc(OC3OC(CO)C(O)C(O)C3O)cc2C(=O)OC)c1 (centres unmarked) [Compound 2ZFH244, methyl 2-(3-methoxycarbonyl-phenyl)-5-[3,4,5-trihydroxy-6-(hydroxymethyl)tetrahydropyran-2-yl]oxy-benzoate] | 0.001 |
| CNC(=O)c1cccc(-c2ccc(OC3OC(CO)C(O)C(O)C3O)cc2C(=O)OC)c1 (centres unmarked) [Compound 2ZFH265, methyl 2-[3-(methylcarbamoyl)phenyl]-5-[3,4,5-trihydroxy-6-(hydroxymethyl)tetrahydropyran-2-yl]oxy-benzoate] | 0.002 |
| CNC(=O)c1cccc(-c2ccc(OC3OC(CO)C(O)C(O)C3O)cc2C(=O)NC)c1 (centres unmarked) [Compound 2ZFH266, N-methyl-2-[3-(methylcarbamoyl)phenyl]-5-[3,4,5-trihydroxy-6-(hydroxymethyl)tetrahydropyran-2-yl]oxy-benzamide] | 0.012 |
| COC(=O)c1cc2cc(OC3OC(CO)C(O)C(O)C3O)ccc2s1 (centres unmarked) [Compound 2ZFH297, methyl 5-[3,4,5-trihydroxy-6-(hydroxymethyl)tetrahydropyran-2-yl]oxybenzothiophene-2-carboxylate] | 0.002 |
| COC(=O)c1cc2ccc(OC3OC(CO)C(O)C(O)C3O)cc2s1 (centres unmarked) [Compound 2ZFH304, methyl 6-[3,4,5-trihydroxy-6-(hydroxymethyl)tetrahydropyran-2-yl]oxybenzothiophene-2-carboxylate] | 0.002 |
| OCc1cccc(-c2ccc(OC3OC(CO)C(O)C(O)C3O)cc2)c1 (centres unmarked) [Compound 3ZFH18, 2-(hydroxymethyl)-6-[4-[3-(hydroxymethyl)phenyl]phenoxy]tetrahydropyran-3,4,5-triol] | 0.003 |
| OCc1ccc(-c2ccc(OC3OC(CO)C(O)C(O)C3O)cc2)cc1 (centres unmarked) [Compound 3ZFH24, 2-(hydroxymethyl)-6-[4-[4-(hydroxymethyl)phenyl]phenoxy]tetrahydropyran-3,4,5-triol] | 0.006 |
| OCC1OC(Oc2ccc(-c3cccc(O)c3)cc2)C(O)C(O)C1O (centres unmarked) [Compound 3ZFH44, 2-(hydroxymethyl)-6-[4-(3-hydroxyphenyl)phenoxy]tetrahydropyran-3,4,5-triol] | 0.004 |
| N#Cc1ccccc1-c1ccc(OC2OC(CO)C(O)C(O)C2O)cc1 (centres unmarked) [Compound 3ZFH64, 2-[4-[3,4,5-trihydroxy-6-(hydroxymethyl)tetrahydropyran-2-yl]oxyphenyl]benzonitrile] | 0.002 |
| NC(=O)c1ccccc1-c1ccc(OC2OC(CO)C(O)C(O)C2O)cc1 (centres unmarked) [Compound 3ZFH66, 2-[4-[3,4,5-trihydroxy-6-(hydroxymethyl)tetrahydropyran-2-yl]oxyphenyl]benzamide] | 0.006 |
| N#Cc1cccc(-c2ccc(OC3OC(CO)C(O)C(O)C3O)cc2)c1 (centres unmarked) [Compound 3ZFH68, 3-[4-[3,4,5-trihydroxy-6-(hydroxymethyl)tetrahydropyran-2-yl]oxyphenyl]benzonitrile] | 0.001 |
| N#Cc1ccc(-c2ccc(OC3OC(CO)C(O)C(O)C3O)cc2)cc1 (centres unmarked) [Compound 3ZFH70, 4-[4-[3,4,5-trihydroxy-6-(hydroxymethyl)tetrahydropyran-2-yl]oxyphenyl]benzonitrile] | 0.008 |
| O=[N+]([O-])c1ccc(-c2ccc(OC3OC(CO)C(O)C(O)C3O)cc2)cc1 (centres unmarked) [Compound 3ZFH72, 2-(hydroxymethyl)-6-[4-(4-nitrophenyl)phenoxy]tetrahydropyran-3,4,5-triol] | 0.002 |
| OCC1OC(Oc2ccc(-c3cccnc3)cc2)C(O)C(O)C1O (centres unmarked) [Compound 3ZFH93, 2-(hydroxymethyl)-6-[4-(3-pyridyl)phenoxy]tetrahydropyran-3,4,5-triol] | 0.002 |
| OCC1OC(Oc2ccc(-c3ccncc3)cc2)C(O)C(O)C1O (centres unmarked) [Compound 3ZFH96, 2-(hydroxymethyl)-6-[4-(4-pyridyl)phenoxy]tetrahydropyran-3,4,5-triol] | 0.002 |
| OCC1OC(Oc2ccc(-c3ccccc3O)cc2)C(O)C(O)C1O (centres unmarked) [Compound 3ZFH111, 2-(hydroxymethyl)-6-[4-(2-hydroxyphenyl)phenoxy]tetrahydropyran-3,4,5-triol] | 0.008 |
| OCc1ccccc1-c1ccc(OC2OC(CO)C(O)C(O)C2O)cc1 (centres unmarked) [Compound 3ZFH114, 2-(hydroxymethyl)-6-[4-[2-(hydroxymethyl)phenyl]phenoxy]tetrahydropyran-3,4,5-triol] | 0.016 |

Same assay, conditions: Table 21

| Compound | HAI Titer EC>50 [µM] |
| --- | --- |
| COC(=O)c1cccc(-c2ccc(OC3OC(CO)C(O)C(O)C3O)cc2)c1 (centres unmarked) [Compound 2ZFH238] | >2500 |

Same assay, conditions: Table 21; ZFH/JWJ codes

| Compound | HAI Titer EC>50 [µM] |
| --- | --- |
| COC(=O)COC1OC(CO)C(O)C(O)C1O (centres unmarked) [Compound 1ZFH74] | 500.000 |
| O=C(NCCCCOC1OC(CO)C(O)C(O)C1O)c1ccc(-c2c3ccc(=O)cc-3oc3cc(O)ccc23)c(C(=O)O)c1 (centres unmarked) [Compound 1ZFH134] | 125.000 |

Same assay, conditions: mM

| Compound | HAI Titer EC>90 [mM] |
| --- | --- |
| NC1C(O)C(CO)OC(OCc2ccccc2)C1O [Benzyl 3-amino-3-deoxy-a-D-mannoside, reference compound] | >1 |
